In assay [1] the test system is NIH 3T3 cells. As to the kind of experiment: UV-activated nanomechanical necrosis, live cell confocal microscopy, NIH 3T3. The assay is classed as cell-based, mouse. Conditions: 355 nm UV. The method, then: Following the synthetic bilipid vesicle experiments, nanomechanical action upon live cells was studied using confocal microscopy aided by a super-resolution technique called Phase Modulation Nanoscopy. Applicants used two experimental methods. In the first method (Method A), the molecular motors were loaded into the cell media and the imaging was initiated within 5 minutes to 24 hours. In the second method, (Method B), the molecular motors were loaded into the cell media, incubated for 30 minutes to 24 hours, and then washed three times with fresh molecular motor-free media before imaging. […]
(§1) Microscopy cells were seeded in untreated iBibi 100 μL live cell channels and allowed to grow to 40% to 60% confluence, at 37° C. in 5% CO2. At this stage, the medium was replaced and cells were treated with the studied nanomachines and co-stains as appropriate, with 0.1% DMSO (as detailed above) present in the final imaging medium. For live cell imaging, DMEM/F12 media (10% FBS) lacking phenol red was used from this point onwards. Following incubation, where Method B was used, the channels were washed with live cell imaging media and imaged using a purpose build incubator housing the microscope maintaining 37° C., 5% CO2 and 10% humidity.
(§2) All live cell imaging experiments used either NIH 3T3 mouse skin fibroblast cells, PC-3 cells, a grade 3 human prostate adenocarcinoma, or Chinese hamster ovary cells (CHO). These are all well-studied cell lines with discrete morphological compositions. Each molecular machine was used as a stock solution at 0.10 to 1.00 μM with total dimethyl sulfoxide (DMSO) concentrations not exceeding 0.1% in the final cell media in order to avoid unwanted cell membrane permeabilization, the DMSO being required for solubility of the organic nanomachines. All loading experiments are carried out in a light-suppressed manner and the possibility of induced or accelerated uptake due to interaction between the molecular motors and the applied co-stain has been eliminated using a series of individual and reversed loading experiments.
(§3) All experimental imaging parameters (i.e., laser beam size, confocal pinhole size, laser intensity, line scanning speed, scanning area (field of view, FOV), and line averaging sequences) were kept constant throughout the experiments. The accuracy and errors associated with the establishment of accelerated necrosis are determined based on one dual channel imaging sequence, which takes 15 seconds in total. This imaging sequence has been carefully established using untreated live cells.
Steady state fluorescence images were recorded using a PhMoNa enhanced Leica SP5 II LSCM equipped with a HCX PL APO 63×/1.40 NA LambdaBlue Oil immersion objective. As an initial control experiment to establish the UV-induced cell toxicity threshold, while mitigating voxel exposure and ensuring sufficient laser dwell time, an imaging sequence has been established to monitor cell morphological and physiological changes as a function of time. All experiments used cell-line-determined culture medium containing 0.1% DMSO.
The applied 100 Hz detection sequence was based on a bidirectional dual-channel continuous scanning method where a minimalistic non-damaging visible laser light (458 nm, 0.2 mW) is used in conjunction with the above detailed UV exposure. This is set as a 2 line/scan accumulation parallel acquisition sequence that is recorded as a function of time. Studied channels correspond to transmission images and UV-induced mitochondrial auto-fluorescence detected at 460 to 550 nm. Applicants further confirmed that the effectiveness of monitoring the UV-activated nanomechanical action on live cells using a conventional CW mercury-arc excitation source equipped with an epi-fluorescence setup consisting of a Zeiss Axiovert 200M inverted microscope, as discussed in FIGS. 18A-C. […]

Assay [2] relates to PC-3 cells. As to the kind of experiment: UV-activated nanomechanical necrosis, live cell confocal microscopy, PC-3. It counts as cell-based, human. The method, then:
Following the synthetic bilipid vesicle experiments, nanomechanical action upon live cells was studied using confocal microscopy aided by a super-resolution technique called Phase Modulation Nanoscopy. Applicants used two experimental methods. In the first method (Method A), the molecular motors were loaded into the cell media and the imaging was initiated within 5 minutes to 24 hours. In the second method, (Method B), the molecular motors were loaded into the cell media, incubated for 30 minutes to 24 hours, and then washed three times with fresh molecular motor-free media before imaging.
Next, Applicants used the smaller nanomachine, 3. Initial control experiments (blank) were performed without nanomachines being present. UV-induced (355 nm) PC-3 necrosis is not initiated until approximately scan 20 (corresponding to 300 second continuous scanning UV exposure, 400 nJ/voxel total dwell time), characterized by massive disruption and rupture of the mitochondrial network and subsequent well-pronounced auto-fluorescent signal detectable in the nucleoli and nucleus wall (FIG. 7A). This is observable by the nucleoli membrane permeabilization and DNA damage at the onset of necrosis. The UV-induced necrosis reaches final stages at approximately scan 40 (corresponding to 600 seconds) that is consistent with characteristic extracellular membrane rupture and homogenous cytosolic auto-fluorescence, indicating loss of cellular organelle boundaries.
as §1, §2, §3
Steady state fluorescence images were recorded using a PhMoNa enhanced Leica SP5 II LSCM equipped with a HCX PL APO 63×/1.40 NA LambdaBlue Oil immersion objective. As an initial control experiment to establish the UV-induced cell toxicity threshold, while mitigating voxel exposure and ensuring sufficient laser dwell time, an imaging sequence has been established to monitor cell morphological and physiological changes as a function of time. All experiments used cell-line-determined culture medium containing 0.1% DMSO. […]

The test system of the next assay is HEK293 cells. As to the kind of experiment: Whole cell patch clamp electrophysiology. It counts as cell-based, human. The method, then: FIGS. 16A-B show whole-cell patch clamp studies of the dynamic effects of UV-induced molecular mechanical action of compound 3 upon HEK293 cells. Also shown are control studies using compound 3 without UV activation, UV-exposed rotor-free control molecule 5, and no molecular additives x. Compounds 3 and 5 were used at 1.0 μM concentrations. […] Similarly, the rotor-free compound 5, and no molecular additive x, show no inward currents during UV illumination (center two traces). Cells were held at −70 mV in voltage clamp mode and UV exposure began 15 seconds after the start of the recording. Each recording is a biological replicate and all traces are shown (n=4 recordings from different cells for 3+UV; n=3 recordings from different cells for each other condition). […] The white arrows (lower right image) highlight membrane blebbing that appears only in the cells treated with UV-activated compound 3. The scale bar represents 10 μm and is applicable for each micrograph.
The dynamic effects of nanomechanical action upon cellular membranes were then studied through the whole cell patch clamp electrophysiology of human embryonic kidney 293 cells (HEK293) commonly used for electrophysiological interrogation. […] These inward currents were not observed in the absence of UV illumination or during UV illumination of non-rotor-bearing control 5 or UV illumination of untreated cells (FIG. 16A).

The subject of assay [3] is NIH 3T3 cells. As to the kind of experiment: Two-photon near-infra red activation, PI dye entry, NIH 3T3. It counts as cell-based, mouse. Conditions: NIH 3T3, 1 μM, PI 200 nM. How it is done: (§4) Two-photon microscopy studies of NIH 3T3 cells were executed on a Nikon E600 upright confocal microscope coupled to a tuneable (710-950 nm Coherent MaiTai) multiphoton source operating at (20%) 240 mW power using a 166 lps scan speed and 128×128 pixel frame resolution for MP-illumination. Images (512×512 pixel, 166 lps) were recorded using a 543 nm (1 mW HeNe) laser combined with a 560 nm long-pass filter to record PI (200 nM) fluorescence and follow the onset of induced necrosis.
(§5) Two photon live cell microscopy studies were also executed on a Nikon E600 upright confocal microscope coupled to a tuneable (710-950 nm Coherent MaiTai) multiphoton source operating at (19.8%) 240 mW power at 720 nm using 166 lines/sec scan speed and 128×128 pixel frame resolution for MP-illumination. An oil immersion Nikon IR objective (×60/1.4 NA) was used. Images (512×512 pixel, 166 l/s) were recorded using a 543 nm (1 mW HeNe) laser combined with a 570 nm long-pass filter to record PI dyes (200 nM). Fluorescence was measured as 2 frame averaged images in order to follow the onset of induced necrosis. Necrosis times have been assigned to detectable PI signals in the nucleolus.

Assay [4] relates to PC-3 cells. As to the kind of experiment: Two-photon near-infra red activation, PI dye entry, PC-3. The assay is classed as cell-based, human. Conditions: PC-3, 1 μM, PI 200 nM. How it is done:
as §4, §5

Assay [5] has as its system synthetic bilipid vesicles. As to the kind of experiment: BODIPY dye release from synthetic bilipid vesicles upon UV illumination. Conditions: first 15 minutes of UV exposure, 365 nm. How it is done:
Premixed and dried synthetic phospholipid blend [1,2-dioleoyl-sn-glycero-3-phosphoethanolamine (DOPE): 1,2-dioleoyl-sn-glycero-3-phospho-L-serine (DOPS): 1,2-dioleoyl-sn-glycero-3-phosphocholine (DOPC) at a ratio of 5:3:2] were stored in a −20° C. freezer before use. To prepare the large unilamellar vesicles (LUVs), 5 mL 0.5× phosphate buffered saline (PBS) at pH 7.4 was added to swell the lipids solution (lipid concentration was 0.25 mg/mL). Then 7 μL of 210 μM BODIPY dye and 2 μL of 50 μM 1 (or 16 in the control experiments) were added to the solution. After incubation for 1 hour at room temperature with occasional vortexing, the lipids formed a cloudy suspension. […] The vesicles were then observed using a home-build confocal fluorescence microscope at 488 nm excitation and 535±50 nm emission.
Due to the highly non-polar nature of compound 1, it prefers to be sorbed in the bilipid membrane (FIG. 3). […] The fluorescence intensity of the BODIPY dye molecules in single vesicles was monitored using a confocal fluorescence microscope by continuously scanning a small area (20×20 μm^2).
As the UV illumination time increased from 0 to 15 minutes, the fluorescence intensity of the vesicles became dimmer (FIG. 4E). […] The average fluorescence intensity drop of 20 vesicles was 70±6% (mean±standard deviation) in the first 15 minutes of UV exposure. […]

Setting [6] is: PC-3, Method A (no washing), 355 nm UV.

SMILES strings stand for the structures.

On to `C[C@@H]1Cc2ccc3ccccc3c2C1=C1c2cc(C#CCCO)ccc2Sc2ccc(C#CCCO)cc21` (racemic) [Compound 3], for which the “Time of Full Necrosis” value with NIH 3T3 cells [1] (NIH 3T3, Method A (no washing)) worked out at 300 s; with PC-3 cells [2] (setting [6]) it was 300 s. Also, the “Time of Initial Necrosis” value is given as 150 s with NIH 3T3 cells [1] (NIH 3T3, Method A (no washing)) and 135 s in the assay on PC-3 cells [2] (setting [6]). In addition, the “% acceleration for full necrosis” value in the assay on NIH 3T3 cells [1] (NIH 3T3, Method A, versus UV upon blank cells) is 50%; in the assay with PC-3 cells [2] (PC-3, Method A, 355 nm UV, versus UV upon blank cells), 50%. In addition, in the assay on PC-3 cells [2] (PC-3, propidium iodide 0.10 μM in medium), the “PI entry into cells upon UV-activated membrane disruption (in words)” value is given as “PI enters the cell”. The “membrane currents without UV illumination (in words)” value in the assay on HEK293 cells (HEK293, 1.0 μM, 4 minute recording, no UV) is “no change in membrane currents”. Further, in the assay on HEK293 cells (HEK293, Method B, UV 355 nm, 1.0 μM), the “inward ionic currents during UV illumination (in words)” value was “inward ionic currents were produced”. Also, the “radius of membrane blebs” value in the assay with HEK293 cells (HEK293, after UV illumination) came out at 3.8±0.2 μm. In addition, the “PI dye entry upon two-photon near-infra red illumination (in words)” value with NIH 3T3 cells [3] and in the assay with PC-3 cells [4] was “resulting in Propidium Iodide (PI) dyes entering” throughout.
Turning to `COc1cc(C#Cc2ccc(C3=C4C(C)=C(C#CC56CC7CC(CC(C7)C5)C6)C(C)=[N+]4[B-](F)(F)n4c(C)c(C#CC56CC7CC(CC(C7)C5)C6)c(C)c43)cc2)c(OC)cc1C#Cc1ccc(C2=C3C(C)=C(C#CC45CC6CC(CC(C6)C4)C5)C(C)=[N+]3[B-](F)(F)n3c(C)c(C#CC45CC6CC(CC(C6)C4)C5)c(C)c32)cc1` [Compound 16], the “average fluorescence intensity drop of BODIPY in 20 vesicles (mean±standard deviation)” value in assay [5] is listed as 9%±20%.

The record behind these values is patent US11565003B2, “Mechanical opening of lipid bilayers by molecular nanomachines” (William Marsh Rice University, priority 2016, dated 2023).
